For 16 molecules, EC50 and inhibition results are on record in patent US10392383B2, “3-(1H-benzo[d]imidazol-2-yl)-1H-pyrazolo[4,3-b]pyridines and therapeutic uses thereof” (Samumed, LLC, priority 2015, dated 2019).

A value given as a limit tells only on which side of the number the result lay.

Broadly, the EC50 is the concentration needed to bring the measured effect to its halfway point. Lower therefore signals an effect from little substance. What is called inhibition is the percentage by which the read-out fell short of the control.

What all share (assay type): cell-based
Experiment [1] concerns IL-6 (THP-1 cells). Kind of experiment: IL-6 inhibition in LPS-stimulated THP-1 monocytes (HTRF). To be noted: Homo sapiens, IL-6 HTRF; for EC50: 500 ng/mL LPS, Table 6; for inhibition at 10 µM: LPS, Table 6, read-out: percent inhibition at 10 μM (given in parentheses for EC50 >10 μM). A digest of the protocol:
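THP-1 cells in 1% FBS pre-incubated 2 h with compound (10-point 1:3 series from 10 μM, 0.1% DMSO), then stimulated with 500 ng/mL LPS for 22 h at 37 °C. IL-6 measured by HTRF 665/620 ratio, normalized to DMSO; EC50 by four-parameter fit, or % inhibition at 10 μM when EC50 >10 μM.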

For experiment [2], the system named is primary human fibroblasts derived from IPF patients (LL29 cells) treated with TGF-β1. Kind of experiment: Inhibition of the fibrotic process: αSMA staining in TGF-β1-treated LL29 fibroblasts. The settings on record: Fibroblast; for EC50: 96 h, LL29 fibroblasts treated with TGF-β1 (20 ng/mL), 4 days, Table 4; for inhibition at 10 µM: LL29 fibroblasts treated with TGF-β1, Table 4, read-out: percent inhibition at 10 μM (given in parentheses for EC50 >10 μM). A digest of the protocol: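 IPF-derived LL29 fibroblasts in F12 with 1% FBS dosed with compound (11-point, 10 μM to 1.87 nM, 0.1% DMSO), then 20 ng/mL TGF-β1 after 1 h, and cultured 4 days at 37 °C. αSMA-positive cell fraction imaged after excluding SYTOX-positive cells, normalized to TGF-β1/DMSO wells; EC50 by non-linear regression, % inhibition at 10 μM if EC50 >10 μM.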

Experiment [3] deals with SW480 colon cancer cells. The experiment is described as follows: Cell viability assay (CellTiter-Blue) in SW480 cells. To be noted: Homo sapiens, 96 h, four days, CellTiter-Blue, 10 μM to 0.0045 μM. A digest of the protocol: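 SW480 cells (~2×10^3 per well) were exposed to compound for four days at 37 °C/5% CO2, using 8-point 1:3 dilutions from 10 μM to 0.0045 μM in duplicate. Viability was read by resazurin reduction (CellTiter-Blue, ~3 h, Ex 560/Em 590 nm). EC50 came from non-linear regression; above 10 μM, percent inhibition at 10 μM is given.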
In general terms: Resazurin is reduced to fluorescent resorufin, in cell work by metabolically active cells.

For `CCCC(=O)Nc1cncc(-c2ccc3[nH]nc(-c4nc5c(-c6ccsc6)cccc5[nH]4)c3n2)c1` [Compound 297, N-(5-(3-(4-(Thiophen-3-yl)-1H-benzo[d]imidazol-2-yl)-1H-pyrazolo[4,3-b]pyridin-5-yl)pyridin-3-yl)butyramide], the EC50 in experiment [1] is over 10000 nM; in experiment [2], 1300 nM; in experiment [3] it was 8920 nM. Moreover, the inhibition at 10 µM in experiment [1] was 0%.
For the molecule `c1ccc(CNCc2cncc(-c3ccc4[nH]nc(-c5nc6c(-c7ccsc7)cccc6[nH]5)c4n3)c2)cc1` [Compound 304, N-Benzyl-1-(5-(3-(4-(thiophen-3-yl)-1H-benzo[d]imidazol-2-yl)-1H-pyrazolo[4,3-b]pyridin-5-yl)pyridin-3-yl)methanamine], the half-maximal effective concentration (EC50) in experiment [1] was found to be 5330 nM; in experiment [2], 2200 nM; in experiment [3] it was 3460 nM.
Taken in the same sequence, the figures for `FC1(F)CCN(Cc2cncc(-c3ccc4[nH]nc(-c5nc6c(-c7ccsc7)cccc6[nH]5)c4n3)c2)C1` [Compound 306, 5-(5-((3,3-Difluoropyrrolidin-1-yl)methyl)pyridin-3-yl)-3-(4-(thiophen-3-yl)-1H-benzo[d]imidazol-2-yl)-1H-pyrazolo[4,3-b]pyridine] were 4480 nM, 1230 nM and 4790 nM.
For `CCNCc1cncc(-c2ccc3[nH]nc(-c4nc5c(-c6ccoc6)cccc5[nH]4)c3n2)c1` [Compound 314, N-((5-(3-(4-(Furan-3-yl)-1H-benzo[d]imidazol-2-yl)-1H-pyrazolo[4,3-b]pyridin-5-yl)pyridin-3-yl)methyl)ethanamine], the figures for the EC50 in experiment [1], in experiment [2] and in experiment [3] were over 10000 nM, over 10000 nM and 584 nM, respectively. Moreover, the results for the inhibition at 10 µM in experiment [1] and in experiment [2] were 15.6% and 0%, respectively.
Turning to `CCC(=O)Nc1cncc(-c2ccc3[nH]nc(-c4nc5c(-c6cccs6)cccc5[nH]4)c3n2)c1` [Compound 337, N-(5-(3-(4-(Thiophen-2-yl)-1H-benzo[d]imidazol-2-yl)-1H-pyrazolo[4,3-b]pyridin-5-yl)pyridin-3-yl)propionamide], the values for the EC50 in experiment [1], in experiment [2] and in experiment [3] were 2100 nM, 680 nM and 3260 nM, respectively.
In the case of `CN(C)c1cncc(-c2ccc3[nH]nc(-c4nc5c(-c6cccs6)cccc5[nH]4)c3n2)c1` [Compound 343, N,N-Dimethyl-5-(3-(4-(thiophen-2-yl)-1H-benzo[d]imidazol-2-yl)-1H-pyrazolo[4,3-b]pyridin-5-yl)pyridin-3-amine], the figures for the EC50 in experiment [1], in experiment [2] and in experiment [3] were 3670 nM, 1180 nM and 2360 nM, respectively.
On to `CN(C)Cc1cncc(-c2ccc3[nH]nc(-c4nc5c(-c6cccs6)cccc5[nH]4)c3n2)c1` [Compound 349, N,N-dimethyl-1-(5-(3-(4-(thiophen-2-yl)-1H-benzo[d]imidazol-2-yl)-1H-pyrazolo[4,3-b]pyridin-5-yl)pyridin-3-yl)methanamine], for which the EC50 in experiment [1] is over 10000 nM; in experiment [2], 2500 nM; in experiment [3] it was 2890 nM. Moreover, the inhibition at 10 µM in experiment [1] came to 14.5%.
For `c1csc(-c2cccc3[nH]c(-c4n[nH]c5ccc(-c6ccncc6)nc45)nc23)c1` [Compound 354, 5-(Pyridin-4-yl)-3-(4-(thiophen-2-yl)-1H-benzo[d]imidazol-2-yl)-1H-pyrazolo[4,3-b]pyridine], the EC50 in experiment [1] was over 10000 nM; in experiment [2], over 10000 nM; in experiment [3], 2800 nM. Moreover, the inhibition at 10 µM in experiment [1] turned out to be 20.4%; in experiment [2], 31.2%.
Consider `O=C(Nc1cncc(-c2ccc3[nH]nc(-c4nc5c(-c6cccs6)cccc5[nH]4)c3n2)c1)C1CC1` [Compound 356, N-(5-(3-(4-(Thiophen-2-yl)-1H-benzo[d]imidazol-2-yl)-1H-pyrazolo[4,3-b]pyridin-5-yl)pyridin-3-yl)cyclopropanecarboxamide], for which the 50% effective concentration (EC50) was over 10000 nM in experiment [1], over 10000 nM in experiment [2] and 3750 nM in experiment [3]. Besides, the values for the inhibition at 10 µM in experiment [1] and in experiment [2] were 25.7% and 0%, respectively.
`Cc1ccc(-c2cccc3[nH]c(-c4n[nH]c5ccc(-c6cncc(N)c6)nc45)nc23)s1` [Compound 395, 5-(3-(4-(5-Methylthiophen-2-yl)-1H-benzo[d]imidazol-2-yl)-1H-pyrazolo [4,3-b]pyridin-5-yl)pyridin-3-amine]: the EC50 in experiment [1] is 64 nM; in experiment [2] it was 186 nM; in experiment [3], 320 nM.
As to `Cc1ccc(-c2cccc3[nH]c(-c4n[nH]c5ccc(-c6cncc(NC(=O)C(C)C)c6)nc45)nc23)s1` [Compound 401, N-(5-(3-(4-(5-Methylthiophen-2-yl)-1H-benzo[d]imidazol-2-yl)-1H-pyrazolo [4,3-b]pyridin-5-yl)pyridin-3-yl)isobutyramide], the EC50 in experiment [1] was over 10000 nM; in experiment [2] it was 673 nM; in experiment [3] it was 3830 nM. Moreover, the inhibition at 10 µM in experiment [1] was 45.4%.
Turning to `CCNCc1cncc(-c2ccc3[nH]nc(-c4nc5c(-c6cc(F)cc(NCCN(C)C)c6)cccc5[nH]4)c3n2)c1` [Compound 454, N^1-(3-(2-(5-(5-((Ethylamino)methyl)pyridin-3-yl)-1H-pyrazolo[4,3-b]pyridin-3-yl)-1H-benzo[d]imidazol-4-yl)-5-fluorophenyl)-N^2,N^2-dimethylethane-1,2-diamine], the EC50 in experiment [1] is 628 nM; in experiment [2] it was 2400 nM; in experiment [3], 1480 nM.
For the molecule `CC(C)Nc1cncc(-c2ccc3[nH]nc(-c4nc5c(-c6cc(F)cc(NCCN(C)C)c6)cccc5[nH]4)c3n2)c1` [Compound 460, N^1-(3-Fluoro-5-(2-(5-(5-(isopropylamino)pyridin-3-yl)-1H-pyrazolo[4,3-b]pyridin-3-yl)-1H-benzo[d]imidazol-4-yl)phenyl)-N^2,N^2-dimethylethane-1,2-diamine], the values for the EC50 in experiment [1], in experiment [2] and in experiment [3] were 975 nM, 1440 nM and 508 nM, respectively.
For the molecule `CCCCC(=O)Nc1cncc(-c2ccc3[nH]nc(-c4nc5c(-c6cc(F)cc(NCCN(C)C)c6)cccc5[nH]4)c3n2)c1` [Compound 467, N-(5-(3-(4-(3-((2-(Dimethylamino)ethyl)amino)-5-fluorophenyl)-1H-benzo [d]imidazol-2-yl)-1H-pyrazolo[4,3-b]pyridin-5-yl)pyridin-3-yl)pentanamide], the figures for the EC50 in experiment [1], in experiment [2] and in experiment [3] were 1320 nM, 1180 nM and 1100 nM, respectively.
Consider `CN(C)CCNc1cc(F)cc(-c2cccc3[nH]c(-c4n[nH]c5ccc(-c6cncc(CNCC7CCCC7)c6)nc45)nc23)c1` [Compound 473, N^1-(3-(2-(5-(5-(((Cyclopentylmethyl)amino)methyl)pyridin-3-yl)-1H-pyrazolo[4,3-b]pyridin-3-yl)-1H-benzo[d]imidazol-4-yl)-5-fluorophenyl)-N^2,N^2-dimethylethane-1,2-diamine], for which the EC50 came out at 4260 nM in experiment [1], 1450 nM in experiment [2] and 2740 nM in experiment [3].
For the molecule `CN(C)CCNc1cc(F)cc(-c2cccc3[nH]c(-c4n[nH]c5ccc(-c6ccccn6)nc45)nc23)c1` [Compound 476, N^1-(3-Fluoro-5-(2-(5-(pyridin-2-yl)-1H-pyrazolo[4,3-b]pyridin-3-yl)-1H-benzo[d]imidazol-4-yl)phenyl)-N^2,N^2-dimethylethane-1,2diamine], the EC50 in experiment [1] came out at 8750 nM; in experiment [2] it was 1080 nM; in experiment [3] it was 1440 nM.
